{
  "source": "patent US20060106003A1",
  "about": "“Combination of a macrolide t-cell immunomodulator and a calciferol for the treatment of skin diseases or of inflammatory bowel disease” (priority 2003, published 2006)",
  "origin": "cited, not measured here",
  "test_system": "allogeneic kidney transplantation",
  "details": "rat, oral administration; suppression of systemic immune response",
  "data": [
    {"smiles": "C=CC[C@@H]1/C=C(\\C)C[C@H](C)C[C@H](OC)[C@H]2O[C@@](O)(C(=O)C(=O)N3CCCC[C@H]3C(=O)O[C@H](/C(C)=C/[C@@H]3CC[C@@H](O)[C@H](OC)C3)[C@H](C)[C@@H](O)CC1=O)[C@H](C)C[C@@H]2OC", "note": "[tacrolimus]", "values": [
      {"measurement": "minimum effective dose (MED)", "result": 14, "unit": "mg/kg"}
    ]}
  ]
}
